Patent US7759362B2, “Quinolonecarboxylic acid compounds, preparation methods and pharmaceutical uses thereof” (Institut of Medicinal Biotechnology Chinese Academy of …, priority 2004, dated 2010)
Values after ≈ are worked out from the molar mass of the structure shown.

What was measured:
K. pneumoniae 7 = assay: MIC, two-fold plate dilution method; assay type: cell-based; settings: K. pneumoniae 7, Gram-negative; Muener-Hinton medium
Text: (§1) . The pharmaceutically acceptable salts or hydrates thereof have the same antibacterial activity.
(§2) Two-fold plate dilution method is used for determination of activity, with Muener-Hinton medium (DIFCO) as the culture medium and clinically isolated pathogenic strain, quality control strain and standard strain (provided by National Institute for the Control of Pharmaceutical and Biological Products) as test strains.

E. coli ATTC 25922 = assay: MIC, two-fold plate dilution method; assay type: cell-based; settings: E. coli ATTC 25922, Gram-negative; Muener-Hinton medium
Text: as §1, §2

K. pneumoniae 14 = assay: MIC, two-fold plate dilution method; assay type: cell-based; settings: K. pneumoniae 14, Gram-negative; Muener-Hinton medium
Text: as §1, §2

S. epidermidis 26069 = assay: MIC, two-fold plate dilution method; assay type: cell-based; settings: S. epidermidis 26069, Gram-positive; Muener-Hinton medium
Text: as §1, §2

S. pneumoniae 70 = assay: MIC, two-fold plate dilution method; assay type: cell-based; settings: S. pneumoniae 70, Gram-positive; Muener-Hinton medium
Text: as §1, §2

Enterococcus 755 = assay: MIC, two-fold plate dilution method; assay type: cell-based; settings: Enterococcus 755, Gram-positive; Muener-Hinton medium
Text: as §1, §2

P. aeruginosa 17 = assay: MIC, two-fold plate dilution method; assay type: cell-based; settings: P. aeruginosa 17, Gram-negative; Muener-Hinton medium
Text: as §1, §2

S. pyogenes 26 = assay: MIC, two-fold plate dilution method; assay type: cell-based; settings: S. pyogenes 26, Gram-positive; Muener-Hinton medium
Text: as §1, §2

E. coli 26 = assay: MIC, two-fold plate dilution method; assay type: cell-based; settings: E. coli 26, Gram-negative; Muener-Hinton medium
Text: as §1, §2

S. pneumoniae 98 = assay: MIC, two-fold plate dilution method; assay type: cell-based; settings: S. pneumoniae 98, Gram-positive; Muener-Hinton medium
Text: as §1, §2

S. aureus ATTC 25923 = assay: MIC, two-fold plate dilution method; assay type: cell-based; settings: S. aureus ATTC 25923, Gram-positive; Muener-Hinton medium
Text: as §2

S. pneumoniae = settings: compared with gatifloxacin; cited from earlier work
[1] = Acute oral toxicity in mice; settings: mouse, in vivo, male mice, deaths after 7 days, Bliss program
Experimental: Toxicity experiments are carried out on the compounds prepared in embodiment 11, 13 and 15 to determine the acute oral toxicity of the present compounds. Solutions of the three compounds in different concentrations are administered to male mice at a dosage of 0.1 mL/10 g body weight, then the number of dead mice after 7 days is recorded, and lethal dose 50% (LD50) is calculated for each compound by Bliss program.

Row | SMILES | MIC (K. pneumoniae 7) | MIC (E. coli ATTC 25922) [µg/mL] | MIC (K. pneumoniae 14) [µg/mL] | MIC (S. epidermidis 26069) [µg/mL] | MIC (S. pneumoniae 70) [µg/mL] | MIC (Enterococcus 755) [µg/mL] | MIC (P. aeruginosa 17) [µg/mL] | MIC (S. pyogenes 26) [µg/mL] | MIC (E. coli 26) [µg/mL] | MIC (S. pneumoniae 98) [µg/mL] | MIC (S. aureus ATTC 25923) [µg/mL] | in vitro activity against S. pneumoniae (in words) (S. pneumoniae) | LD50 at 7 days [1] [mg/kg]
1 | O=C(O)c1cn(C2CC2)c2cc(N3CCNCC3)c(F)cc2c1=O [Ciprofloxacin, ciprofloxacin, reference compound] | 0.015 g/mL | – | – | – | – | – | – | – | – | – | – | – | –
2 | Cl.O=C(O)c1cn(C2CC2)c2c(OC(F)F)c(N3C[C@H]4CCCN[C@H]4C3)c(F)cc2c1=O [Embodiment 14, 1-cyclopropyl-8-difluoromethoxyl-7-[(1R,6R)-2,8-diazabicyclo[4,3,0]nonane-8-yl]-6-fluoro-1,4-dihydro-4-oxoquinoline-3-carboxylic acid hydrochloride] | 0.03 µg/mL | 0.015 | 0.03 | 0.5 | 0.06 | 0.25 | 1 | 0.5 | 0.03 | 0.015 | 0.03 | – | –
3 | C[C@H]1NCc2cc(-c3ccc4c(=O)c(C(=O)O)cn(C5CC5)c4c3OC(F)F)ccc21 [Embodiment T-3811] | – | – | – | – | – | – | – | – | – | – | – | enhanced in vitro activity against S. pneumoniae, even superior to gatifloxacin | –
4 | Nc1c(F)c(N2C[C@@H]3CCCN[C@@H]3C2)c(OC(F)F)c2c1c(=O)c(C(=O)O)cn2C1CC1 (relative stereo) [Embodiment 21, 5-Amino-1-cyclopropyl-8-difluoromethoxyl-7-(cis-2,8-diazabicyclo[4,3,0]nonane-8-yl)-6-fluoro-1,4-dihydro-4-oxoquinoline-3-carboxylic acid] | 0.015 µg/mL (≈ 0.0332 µM) | < 0.007 | 0.015 (≈ 0.0332 µM) | 0.25 (≈ 0.553 µM) | 0.06 (≈ 0.133 µM) | 0.25 (≈ 0.553 µM) | 0.25 (≈ 0.553 µM) | 0.25 (≈ 0.553 µM) | < 0.007 | 0.03 (≈ 0.0663 µM) | 0.03 (≈ 0.0663 µM) | – | –
5 | Cl.Nc1c(F)c(N2C[C@H]3CCCN[C@H]3C2)c(OC(F)F)c2c1c(=O)c(C(=O)O)cn2C1CC1 [Embodiment 18, 5-Amino-1-cyclopropyl-8-difluoromethoxyl-7-[(1R,6R)-2,8-diazabicyclo[4,3,0]nonane-8-yl]-6-fluoro-1,4-dihydro-4-oxoquinoline-3-carboxylic acid hydrochloride] | 0.015 µg/mL | 0.015 | 0.015 | 0.25 | 0.03 | 0.06 | 0.25 | 0.25 | 0.015 | 0.125 | 0.06 | – | –
6 | Cl.O=C(O)c1cn(C2CC2)c2c(OC(F)F)c(N3C[C@@H]4CCCN[C@@H]4C3)c(F)cc2c1=O (relative stereo) [Embodiment 15, 1-Cyclopropyl-8-difluoromethoxyl-7-[cis-2,8-diazabicyclo[4,3,0]nonane-8-yl]-6-fluoro-1,4-dihydro-4-oxoquinoline-3-carboxylic acid hydrochloride] | 0.03 µg/mL | 0.25 | 0.03 | 0.5 | 0.06 | 0.25 | 0.5 | 0.25 | 0.03 | 0.125 | 0.125 | – | > 4000
7 | COc1c(N2C[C@@H]3CCCN[C@@H]3C2)c(F)cc2c(=O)c(C(=O)O)cn(C3CC3)c12 [Moxifloxacin, moxifloxacin, reference compound] | 0.03 µg/mL (≈ 0.0747 µM) | 0.03 (≈ 0.0747 µM) | 0.03 (≈ 0.0747 µM) | 0.5 (≈ 1.25 µM) | 0.125 (≈ 0.311 µM) | 0.5 (≈ 1.25 µM) | 0.5 (≈ 1.25 µM) | 0.5 (≈ 1.25 µM) | 0.03 (≈ 0.0747 µM) | 0.125 (≈ 0.311 µM) | 0.06 (≈ 0.149 µM) | – | –
8 | Cl.O=C(O)c1cn(C2CC2)c2c(OC(F)F)c(N3C[C@@H]4CCCN[C@@H]4C3)c(F)cc2c1=O [Embodiment 13, 1-cyclopropyl-8-difluoromethoxyl-7-[(1S,6S)-2,8-diazabicyclo[4,3,0]nonane-8-yl]-6-fluoro-1,4-dihydro-4-oxoquinoline-3-carboxylic acid hydrochloride] | 0.015 µg/mL | 0.015 | 0.015 | 0.25 | 0.125 | 0.25 | 0.25 | 0.25 | 0.015 | 0.015 | 0.03 | – | > 4000
9 | Cl.Nc1c(F)c(N2C[C@@H]3CCCN[C@@H]3C2)c(OC(F)F)c2c1c(=O)c(C(=O)O)cn2C1CC1 [Embodiment 17, 5-amino-1-cyclopropyl-8-difluoromethoxyl-7-[(1S,6S)-2,8-diazabicyclo[4,3,0]nonane-8-yl]-6-fluoro-1,4-dihydro-4-oxoquinoline-3-carboxylic acid hydrochloride] | 0.015 µg/mL | 0.051 | 0.015 | 0.25 | 0.015 | 0.015 | 0.25 | 0.25 | 0.015 | 0.015 | 0.03 | – | > 4000
